In publication PMC10671849, “Synthesis and Evaluation of Marine-Inspired Compounds Result in Hybrids with Antitrypanosomal and Antileishmanial Activities” (Marine Drugs, 2023):
Where two headings read alike, the source gives them in different places.

Columns and labels:
[1] = tested on: L. infantum promastigotes; experiment: Anti-Leishmania activity, resazurin-based assay; assay type: cell-based; conditions: read-out: Anti-Parasitic Activity IC50 (µM) 95% CI, L. infantum Promastigotes
Description: Promastigotes from the L. infantum strain (MHOM/MA/67/ITMAP-263) were grown in 5-mL T25 flasks in Schneider’s insect medium supplemented with 10% heat-inactivated fetal bovine serum (FBS), 200 U/mL penicillin/streptomycin, 6 µg/mL Phenol Red, and 5 mM HEPES. The cultures were maintained in an incubator at 27 °C and diluted to 2 × 10^5/mL every 5 days. For the assays, the parasites used were equivalent to late/log with 2 or 3 days of culture.
The compounds’ efficacy against L. infantum promastigotes was evaluated using a resazurin-based assay. Parasites were added to 100 µL of serial dilutions of compounds in supplemented complete medium at a cell density of 5 × 10^5/mL. As a quality control, a dose–response curve to the antileishmanial drug miltefosine was included in all the assays. The final volume of the assay was 200 µL/well. Each condition was carried out in duplicate. Following 72 h of incubation at the specific conditions for parasites, 20 µL of a 0.5 mM resazurin solution was added, and the plates were incubated for a further 4 h under the same conditions. Fluorescence was measured at 544 nm and 590 nm excitation and emission wavelengths, respectively, using a Synergy 2 Multi-Mode Reader (Biotek, Winooski, VT, USA). Results are shown as % of parasite growth inhibition compared to control (untreated parasites) and represent the average of at least three independent experiments. The effect was evaluated by the determination of the IC50 value (concentration required to inhibit growth in 50%) and was calculated by non-linear regression curves using GraphPad Prism software, version 8.1.1 for Windows (GraphPad Software, San Diego, CA, USA).

[2] = tested on: T. brucei Lister 427 bloodstream forms; experiment: Anti-T. brucei activity, resazurin-based assay on bloodstream forms; assay type: cell-based, Trypanosoma brucei; conditions: for IC50: Trypanosoma brucei, read-out: Anti-Parasitic Activity IC50 (µM) 95% CI, T. brucei
Description: T. brucei Lister 427 bloodstream forms were grown in a humidified incubator at 37 °C and 5% CO2 in complete HMI-9 medium supplemented with 10% heat-inactivated fetal bovine serum (FBS) and 100 UI/mL penicillin/streptomycin. Parasite maintenance was performed in T25 ventilated flasks by subpassage at a concentration of 1 × 10^4/mL every 2 days in T25 ventilated flasks. Luciferase-expressing L. infantum (MHOM/MA/67/ITMAP-263) axenic amastigotes expressing episomal luciferase were maintained in MAA20 [31] at 37 °C in a 5% CO2 environment with subculture every 7 days at 1 × 10^6/mL in 5-mL T25 ventilated flasks.
The compounds’ efficacy against bloodstream-stage trypomastigotes was evaluated using a resazurin-based assay. Parasites were added to 100 µL of serial dilutions of compounds in supplemented complete medium at a cell density of 5 × 10^3/mL. As a quality control, a dose–response curve for the antitrypanosomal pentamidine was included in all the assays. The final volume of the assay was 200 µL/well. Each condition was carried out in duplicate. Following 72 h of incubation at the specific conditions for parasites, 20 […] of a 0.5 mM resazurin solution was added, and the plates were incubated for a further 4 h under the same conditions. Fluorescence was measured at 544 nm and 590 nm excitation and emission wavelength, respectively, using a Synergy 2 Multi-Mode Reader (Biotek, Winooski, VT, USA). The results are shown as % of parasite growth inhibition compared to control (untreated parasites) and represent the average of at least three independent experiments. The effect was evaluated by the determination of the IC50 value (concentration required to inhibit growth in 50%) and calculated by non-linear regression curves using GraphPad Prism software, version 8.1.1 for Windows (GraphPad Software, San Diego, CA, USA).

[3] = 72 h incubation, resazurin, highest concentration tested 40 µM, 95% CI in parentheses
[4] = bloodstream forms, 72 h incubation, resazurin

Row | IC50 [1, 3] [µM] | IC50 [2, 4] [µM] | Anti-Parasitic Activity IC50 (µM) 95% CI, T. brucei [2, 4] | SMILES | IC50 ([1]; 72 h) [µM] | IC50 ([2]; 72 h) [µM]
1 | > 40 | > 40 | did not show detectable values of IC50 | C=CCc1cc(Cn2cc(C(=O)Nc3ccccc3C(N)=O)nn2)c(O)c(OC)c1 [9a, 1-(5-allyl-2-hydroxy-3-methoxybenzyl)-N-(2-carbamoylphenyl)-1H-1,2,3-triazole-4-carboxamide] |  | 
2 |  |  |  | C=CCc1ccc(O)c(OC)c1 [Eugenol, eugenol, reference compound] | > 40 | > 40
3 | > 40 | 16.4 |  | C=CCc1cc(Cn2cc(C(=O)Nc3ccc(OC)cc3C(N)=O)nn2)c(O)c(OC)c1 [9b, 1-(5-allyl-2-hydroxy-3-methoxybenzyl)-N-(2-carbamoyl-4-methoxyphenyl)-1H-1,2,3-triazole-4-carboxamide] |  | 
4 | > 40 | 19.9 |  | C=CCc1cc(Cn2cc(-c3nc4ccc(OC)cc4c(=O)[nH]3)nn2)c(O)c(OC)c1 [10b, 2-(1-(5-allyl-2-hydroxy-3-methoxybenzyl)-1H-1,2,3-triazol-4-yl)-6-methoxyquinazolin-4(3H)-one] |  | 
5 | > 40 | > 40 | did not show detectable values of IC50 | C=CCc1cc(Cn2cc(-c3nc4ccccc4c(=O)[nH]3)nn2)c(O)c(OC)c1 [10a, 2-(1-(5-allyl-2-hydroxy-3-methoxybenzyl)-1H-1,2,3-triazol-4-yl)quinazolin-4(3H)-one] |  | 
6 | > 40 | 31.7 |  | C=CCc1cc(Cn2cc(-c3nc4ccccc4c(=O)o3)nn2)c(O)c(OC)c1 [compound 14, 2-(1-(5-allyl-2-hydroxy-3-methoxybenzyl)-1H-1,2,3-triazol-4-yl)-4H-benzo[d][1,3]oxazin-4-one] |  | 
7 | > 40 | 15.9 |  | C=CCc1cc(Cn2cc(C(=O)Nc3ccc(Cl)cc3C(N)=O)nn2)c(O)c(OC)c1 [9d, 1-(5-allyl-2-hydroxy-3-methoxybenzyl)-N-(2-carbamoyl-4-chlorophenyl)-1H-1,2,3-triazole-4-carboxamide] |  | 
8 | 7.54 | 21 |  | C=CCc1cc(Cn2cc(C(=O)Nc3ccc(F)cc3C(N)=O)nn2)c(O)c(OC)c1 [9c, 1-(5-allyl-2-hydroxy-3-methoxybenzyl)-N-(2-carbamoyl-4-fluorophenyl)-1H-1,2,3-triazole-4-carboxamide] |  | 
9 | > 40 | 11.2 |  | C=CCc1cc(Cn2cc(-c3nc4ccc(F)cc4c(=O)[nH]3)nn2)c(O)c(OC)c1 [10c, 2-(1-(5-allyl-2-hydroxy-3-methoxybenzyl)-1H-1,2,3-triazol-4-yl)-6-fluoroquinazolin-4(3H)-one] |  | 
10 | > 40 | > 40 |  | C=CCc1ccc(OCc2cn(CC(=O)Nc3ccccc3C(=O)O)nn2)c(OC)c1 [compound 13, 2-(2-(4-((4-allyl-2-methoxyphenoxy)methyl)-1H-1,2,3-triazol-1-yl)acetamido) benzoic acid] |  | 
